# From publication PMC8146289, “Tissue Distribution of Oleocanthal and Its Metabolites after Oral Ingestion in Rats” (Antioxidants, 2021)
# Key:
# [1] = Tissue distribution of OLC and its metabolites in rats after oral gavage of OLC-enriched refined olive oil (LC-ESI-LTQ-Orbitrap-MS); assay type: in vivo, Male Sprague Dawley rats; conditions: for plasma and tissues in which the compound was detected: liver, kidney, spleen, lungs, heart, brain, thyroid, skin, 1, 2, 4.5 h after oral ROO with OLC; for decrease of OLC concentration in the intestine / decrease of OLC concentration in the stomach: relative to the maximum at 1 h; for decrease of OLC concentration in the stomach: stomach samples
# Description: The studies were conducted following a protocol approved by the Animal Experimentation Ethics Committee of the University of Barcelona, Spain (trial no. CEEA 124/16) and Generalitat de Catalunya (no. 6435). Male Sprague Dawley rats (body weight 249 ± 8 g) were purchased from Envigo RMS Spain S.L. (Sant Feliu de Codines, Barcelona, Spain). The animals were acclimatized in animal housing in an air-conditioned room at 22 ± 2 °C under a 12 h/12 h cycle of light and darkness and given free access to a commercial diet (Teklad 2014, Envigo RMS Spain S.L.) and water for at least 10 days before the study. The rats were fasted for over 12 h before the experiments but were allowed free access to water.
# Before the distribution experiment, the ROO (vehicle) was analyzed by LC-ESI-LTQ-Orbitrap-MS to make sure it was free of phenolic compounds. The liquid–liquid extraction of phenolic compounds of ROO was performed following the previously described procedures. The chromatographic and mass spectrometer conditions were the same as those used for the identification of metabolites (Section 2.3). After verifying that the ROO was free of phenols, OLC was added to obtain a final concentration of 0.3 mg/mL. The OLC concentration was chosen while taking into account both the OLC concentration in commercial EVOO (~300 mg/kg) and the daily ingestion of EVOO recommended by the European Food Safety Authority of at least 5 mg of hydroxytyrosol and its derivatives per 20 g of olive oil.
# The rats were divided into four groups—a control group (no administration) and three dosed groups—to study the distribution of OLC at three different time points: 1, 2 and 4.5 h post-administration. On treatment day, the rats received the ROO containing OLC by oral gavage (2.5 mL/300 g body weight). The volume for gavage administration was established following a good practice guide for substance administration and was lower than the maximum volume of lipid vehicles per kg of rat body weight that prevented elevated plasma corticosterone levels.
# The rats were anesthetized with isoflurane (IsoFloR, Veterinaria Esteve, Barcelona, Spain) and euthanized by exsanguination via cardiac puncture at 1, 2 or 4.5 h after ROO ingestion. The control group was maintained under fasting conditions without olive oil ingestion and then similarly euthanized. The blood was collected in EDTA tubes, and plasma samples were obtained by centrifugation (3000× g for 10 min at 4 °C) and stored at −80 °C until analysis. Different tissues and organs (heart, liver, spleen, lungs, kidney, brain, thyroid, stomach, small intestine and skin) were removed from the rats and placed in pre-weighed tubes. The small intestine samples consisted of a pool of duodenum, jejunum and ileum segments, but the main region used was the jejunum. The procedure was to locate the plica duodenocolica and, from there up to about 5 cm of the intestine before reaching the cecum, to remove it from the animal. The collected tissues were washed with physiological serum at 37 °C and placed between absorbent paper to remove the rest of the serum. In the case of the intestine, the luminal contents were first removed by applying pressure with the index finger and thumb, and then the lumen was washed by perfusing with the physiological serum at 37 °C. It was then placed between absorbent paper to remove the remains of the washings. In order to avoid compound oxidation, the collected tissues were kept on ice at all times. Finally, the samples were weighed and stored at −80 °C until analysis. For each group, four animals were used.
# The tissues were homogenized with a small tissue disruptor (T 10 basic ULTRA-TURRAX®, IKA laboratory technology, Staufen Germany) in a 1:1 ratio (w/v) with water:ACN (1:1 (v/v) with 0.1% ascorbic acid). The samples were sonicated for 5 min in an ice bath and shaken for 1 min (Vortex-Genie 2). Each homogenate was centrifuged for 10 min (11,000× g at 4 °C). […]
# [2] = design: method as in PMID 33348608; conditions: in vivo, rats; cited from earlier work
# [3] = design: method as in doi:10.1016/j.foodchem.2009.07.017; conditions: cited from earlier work
# [4] = plasma, stomach, small intestine
SMILES,"plasma and tissues in which the compound was detected [1, 4]","time of Cmax (highest concentration among the three sample times 1, 2, 4.5 h) ([1]; small intestine) [h]","time of Cmax (highest concentration among the three sample times 1, 2, 4.5 h) ([1]; stomach) [h]",intestinal absorption [2] [%],"concentration in the aqueous phase (partition between the oily and aqueous phase) ([3]; digestion of dietary lipids, lipid–water emulsion) [%]",stability in the gastric phase ([3]; in vitro digestion study),detection in plasma ([1]; plasma),"decrease of OLC concentration in the intestine ([1]; small intestine, 2 h post-ingestion) [%]","decrease of OLC concentration in the intestine ([1]; small intestine, 4.5 h post-ingestion) [%]","decrease of OLC concentration in the stomach ([1]; 2 h post-ingestion, ROO with 0.3 mg/mL OLC by oral gavage 2.5 mL/300 g body weight) [%]",decrease of OLC concentration in the stomach ([1]; 4.5 h post-ingestion) [%]
"OCCc1ccc(O)cc1 [TY, tyrosol]",only detected in the stomach and intestinal samples,1,1,–,–,–,–,–,–,–,–
"C/C=C(/C=O)[C@@H](CC=O)CC(=O)OCCc1ccc(O)cc1 [OLC, oleocanthal]",only detected in the stomach and small intestine samples,1,1,16,68.7,good OLC stability in the gastric phase,not found in the plasma,16,33,36,74
